Measured values from PubChem BioAssay (NCI).
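Test compounds were applied to cells in 96-well plates for 48 hours at 5 doses. TGI: concentration producing complete growth inhibition.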

Key:
Assay in all cases: inhibition of tumour cell growth, NCI panel, 48 h
[1] = system: PC-3 prostate
[2] = system: HS 578T breast
[3] = system: SW-620 colon
[4] = system: MDA-MB-231 breast
[5] = system: CAKI-1 renal
[6] = system: MOLT-4 leukemia
[7] = system: UACC-257 melanoma
[8] = system: SN12C renal
[9] = system: SNB-19 CNS
[10] = system: HCT-116 colon
[11] = system: 786-0 renal

SMILES | TGI [1] [µM] | TGI [2] [µM] | TGI [3] [µM] | TGI [4] [µM] | TGI [5] [µM] | TGI [6] [µM] | TGI [7] [µM] | TGI [8] [µM] | TGI [9] [µM] | TGI [10] [µM] | TGI [11] [µM]
CN(C)CCCNC(=O)CNC(=O)c1cc(NC(=O)c2cc(NC(=O)c3cc(NC(=O)CCNC(=O)c4cc(NC(=O)c5cc(NC(=O)c6nccn6C)cn5C)cn4C)cn3C)cn2C)cn1C | > 100 | > 100 | > 100 | > 100 | > 100 | 57 | > 100 | > 100 | > 100 | > 100 | > 100
CC1(C)OC2CN(C(=O)OCc3ccccc3)C(CO)C2O1 (centres undefined) | > 100 | > 100 | > 100 | > 100 | > 100 | > 100 | > 100 | > 100 | > 100 | > 100 | > 100
O=[N+]([O-])/C(C(Cl)=C(Cl)Cl)=C(/Sc1ccccc1)N1CCOCC1 | 14.8 | 59.5 | 6.96 | 19.8 | 13 | 4.61 | 23.6 | 19.3 | 20.2 | 3.27 | 4.51
O=C(O)c1cc2c(cc1S(=O)(=O)O)C1C(C3C2C2(Cl)C(Cl)=C(Cl)C3(Cl)C2(Cl)Cl)C2(Cl)C(Cl)=C(Cl)C1(Cl)C2(Cl)Cl (centres undefined) | > 100 | > 100 | > 100 | 50.9 | > 100 | > 100 | > 100 | 46.4 | > 100 | 32.3 | > 100
CCOC(=O)NNC1(SC)NC(=O)c2c(cc(Cl)oc2=O)O1 (centres undefined) | 13.2 | 12.3 | > 37 | 25.1 | 8.02 | 10.3 | 30.4 | 14.7 | 25.4 | 3.08 | 4.84
C=CC1(CBr)CCC(C(C)(C)Br)O1 (centres undefined) | 24.5 | 39.6 | 10.5 | 28.3 | 16.5 | 7.06 | 28.9 | 33.1 | 30.1 | 18.5 | 6.56
CC1(C)SC2C(NC(=O)Cc3ccccc3)C(=O)N2C1C(=O)O (centres undefined) | > 100 | > 100 | > 100 | > 100 | > 100 | > 100 | > 100 | > 100 | > 100 | > 100 | > 100
COc1ncc(C#CC(=O)c2ccccc2OC)c(OC)n1 | 4.3 | > 32.4 | 2.73 | 2.75 | 4.17 | 1.61 | 8.79 | 1.91 | 29.3 | 9.72 | 3.69
OCC1CCCCN1Cc1nc2ccc(Cl)cc2[nH]1 (centres undefined) | > 100 | > 100 | > 100 | > 100 | > 100 | > 100 | > 100 | > 100 | > 100 | > 100 | > 100
